The target in assay [1] is T1, USPSa-K277A (Staphylococcus aureus, UniProt A0A7U7EVR3, K277A).
T1 sequence (A0A7U7EVR3 213-364 K277A): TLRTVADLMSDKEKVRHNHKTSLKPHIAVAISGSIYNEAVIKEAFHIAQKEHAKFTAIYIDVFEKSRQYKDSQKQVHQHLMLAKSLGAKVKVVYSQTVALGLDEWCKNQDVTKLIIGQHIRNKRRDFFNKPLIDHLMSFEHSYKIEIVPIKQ
In words: MicroScale Thermophoresis (thermophoretic mobility change) nucleotide binding. To be noted: K277A mutant; for Kd: MST, change in thermophoretic mobility, read-out: Dissociation Constant (KD) ± Standard Deviation. How it is done:
(§1) The ligand-binding specificity of USPSa, the role of USPSa residues in c-di-AMP binding, and the c-di-AMP binding affinity of USP homologs were biochemically determined by MST, using purified WT and mutant proteins. […] For these MST experiments, WT and active-site mutants of His6-USPSa were first fluorescently labeled using a RED-Tris NTA Monolith His-Tag labeling kit (Nanotemper, Technologies, Inc). For labeling, the proteins were diluted to a concentration of 800 nM in binding buffer (50 mM potassium phosphate, pH 8.0, 800 mM NaCl, and 0.05% Tween 20), mixed with an equal volume of RED-Tris-NTA dye (80 nM), and incubated on ice in the dark for 30 min. The stock solutions of ligands (c-di-AMP, c-di-GMP, ATP, AMP, c-AMP) were serially diluted with the binding buffer in a 1:1 ratio during each dilution step. The labeled proteins and the ligand dilutions were then mixed in a 1:1 ratio and incubated on ice in the dark for 30 min.
(§2) The samples were then loaded into Monolith standard-treated capillaries in triplicate, and the changes in fluorescence were measured with 40% LED power and 20% IR-laser power for an on-time of 20-s at 23 °C. To determine the binding affinity, the ligand-dependent changes in the intensity of the initial fluorescence, or the thermophoretic mobility, were analyzed according to the law of mass action in a standard fitting mode of MO.Affinity analysis software (version 2.3). To exclude the possibility of nonspecific binding of the ligand to the His6-tag (on USPSa) or ligand-induced USP adsorption to labware or due to aggregation, we performed His6-peptide and EDTA tests, respectively ([91]). In the His6-peptide test, a control His6-peptide was used instead of USP in the binding assay described above, and if no change in initial fluorescence occurred, this confirmed the USP-specific binding of ligands. In the EDTA test, the binding buffer additionally contained 50 mM EDTA to disrupt the interaction between His6-USP and the RED-Tris-NTA dye. The complete loss of the ligand-induced initial fluorescence change in this assay confirmed that this change was neither because of protein aggregation nor because of protein adsorption to labware.
(§3) The Ka values of WT USPSa for c-di-AMP or AMP were set to 100% relative affinity, and the binding affinities of the other nucleotides (Fig. 1C), or USPSa mutants (Fig. 4E), or USP homologs (Fig. 6, B and C) were depicted as percent values compared with the values of the WT USPSa.
On the technique in general: In MST a laser heats a spot of the sample, and binding alters the fluorescence response.

Assay [2] addresses USPSa-WT (Staphylococcus aureus, UniProt A0A7U7EVR3). The description is as above. The conditions noted are these: MST, change in thermophoretic mobility, read-out: Dissociation Constant (KD) ± Standard Deviation. On the procedure:
as §1, §2, §3

In assay [3] the target is USPSa-R279A (Staphylococcus aureus, UniProt A0A7U7EVR3, R279A). Described as above. To be noted: R279A mutant; MST, change in thermophoretic mobility; read-out: Dissociation Constant (KD) ± Standard Deviation. On the procedure: as §1, §2, §3
The target of assay [4] is USPSa-Q280A (Staphylococcus aureus, UniProt A0A7U7EVR3, Q280A). Nature of the assay: MicroScale Thermophoresis (initial fluorescence change) nucleotide binding. To be noted: Q280A mutant, MST, read-out: Dissociation Constant (KD) ± Standard Deviation. On the procedure: as §1, §2, §3
In assay [5] the target is T2, USPSa-H331A (Staphylococcus aureus, UniProt A0A7U7EVR3, H331A).
T2 sequence (A0A7U7EVR3 213-364 H331A): T1 sequence (A0A7U7EVR3 213-364 K277A)
Described as above. The conditions noted are these: for Kd: H331A mutant, MST, initial fluorescence, read-out: Dissociation Constant (KD) ± Standard Deviation. On the procedure:
as §1, §2, §3

The target of assay [6] is T3, USPSa-S244D (Staphylococcus aureus, UniProt A0A7U7EVR3, S244D).
T3 sequence (A0A7U7EVR3 213-364 S244D): T1 sequence (A0A7U7EVR3 213-364 K277A)
The assay is described as above. To be noted: S244D mutant. On the procedure: as §1, §2, §3

Assay [7] deals with T4, USPSa-A242G (Staphylococcus aureus, UniProt A0A7U7EVR3, A242G).
T4 sequence (A0A7U7EVR3 213-364 A242G): T1 sequence (A0A7U7EVR3 213-364 K277A)
The assay is described as above. The conditions noted are these: for Kd: MST, initial fluorescence, read-out: Dissociation Constant (KD) ± Standard Deviation. On the procedure:
as §1, §2, §3

The target of assay [8] is T5, USPSa-Y248A (Staphylococcus aureus, UniProt A0A7U7EVR3, Y248A).
T5 sequence (A0A7U7EVR3 213-364 Y248A): T1 sequence (A0A7U7EVR3 213-364 K277A)
The description is as above. The conditions noted are these: Y248A mutant; for Kd: MST, initial fluorescence, read-out: Dissociation Constant (KD) ± Standard Deviation. How it is done:
as §1, §2, §3

The target in assay [9] is T6, USPSa-S246A (Staphylococcus aureus, UniProt A0A7U7EVR3, S246A).
T6 sequence (A0A7U7EVR3 213-364 S246A): T1 sequence (A0A7U7EVR3 213-364 K277A)
The assay is described as above. To be noted: S246A mutant; for Kd: MST, initial fluorescence, read-out: Dissociation Constant (KD) ± Standard Deviation. How it is done:
as §1, §2, §3

For assay [10], the target named is T7, USPSa-Y281F (Staphylococcus aureus, UniProt A0A7U7EVR3, Y281F).
T7 sequence (A0A7U7EVR3 213-364 Y281F): T1 sequence (A0A7U7EVR3 213-364 K277A)
Described as above. The conditions noted are these: Y281F mutant; for Kd: MST, initial fluorescence, read-out: Dissociation Constant (KD) ± Standard Deviation. How it is done:
as §1, §2, §3

In assay [11] the target is T8, USPSa-L344A (Staphylococcus aureus, UniProt A0A7U7EVR3, L344A).
T8 sequence (A0A7U7EVR3 213-364 L344A): T1 sequence (A0A7U7EVR3 213-364 K277A)
Described as above. To be noted: L344A mutant; for Kd: MST, initial fluorescence, read-out: Dissociation Constant (KD) ± Standard Deviation. On the procedure:
as §1, §2, §3

Assay [12] deals with T9, USPSa-N249A (Staphylococcus aureus, UniProt A0A7U7EVR3, N249A).
T9 sequence (A0A7U7EVR3 213-364 N249A): T1 sequence (A0A7U7EVR3 213-364 K277A)
The assay is described as above. The conditions noted are these: N249A mutant; for Kd: MST, initial fluorescence, read-out: Dissociation Constant (KD) ± Standard Deviation. On the procedure:
as §1, §2, §3

The target of assay [13] is USPSa-K282A (Staphylococcus aureus, UniProt A0A7U7EVR3, K282A). The description is as above. To be noted: K282A mutant, MST, read-out: Dissociation Constant (KD) ± Standard Deviation. On the procedure:
as §1, §2, §3

The mark [14] stands for this setting: Ka relative to WT USPSa set to 100%.

Like-named read-outs stand apart in the source and are kept apart here.

As to `Nc1ncnc2c1ncn2[C@@H]1O[C@H](COP(=O)(O)O)[C@@H](O)[C@H]1O` [AMP], the relative binding affinity in assay [1] (setting [14]) is listed as around 45%; in assay [6] (setting [14]) it was around 50%; in assay [9] (setting [14]), around 40%. Moreover, the Kd (commonly the constant that tells how readily two partners part at equilibrium) was 50.7 ± 4.03 mM in assay [1]; 20.7 ± 4.4 mM in assay [2]; 14.4 ± 0.95 mM in assay [3]; 1820 ± 250 µM in [4]; 4.13 ± 0.11 mM in assay [5]; 4.06 ± 1.94 mM in assay [6] (MST, initial fluorescence, read-out: Dissociation Constant (KD) ± Standard Deviation). Also, the dissociation constant (Kd) in assay [7] (A242G mutant) stood at 140 ± 10 µM; in [8], 5.4 ± 3.81 mM; in assay [9], 7.25 ± 0.21 mM; in assay [10], 5.15 ± 0.35 mM; in assay [11], 4.14 ± 0.9 mM; in assay [12], 5.17 ± 3.42 mM. Besides, the dissociation constant Kd in assay [13] is 1450 ± 640 µM. The “loss of relative binding affinity” value in assay [5] (His331 to Ala mutant, relative to WT USPSa) is reported as around 60%. The “improvement of binding affinity versus WT USPSa” value in [7] (A242G mutant) was around 25 fold. The results for the relative affinity in [8] (setting [14]) and in assay [11] (setting [14]) were around 60% and 40%, respectively. The “binding relative to WT USPSa” value in assay [10] (setting [14]) is around 30%.
On to `Nc1ncnc2c1ncn2[C@@H]1O[C@@H]2COP(=O)(O)O[C@H]3[C@@H](O)[C@H](n4cnc5c(N)ncnc54)O[C@@H]3COP(=O)(O)O[C@H]2[C@H]1O` [c-di-AMP, cyclic-di-adenosine monophosphate], for which the Kd turned out to be 0.0101 ± 0.00024 mM in [1]; 0.00313 ± 0.00075 mM in assay [2]; 0.00867 ± 0.00075 mM in assay [3]; 0.87 ± 0.06 µM in assay [4]; 0.00237 ± 0.00132 mM in assay [5]; 0.01 ± 0.01 µM in [7] (A242G mutant). For the same compound, the dissociation constant (Kd) in assay [8] is 0.00422 ± 0.00011 mM; in [9] it was 0.0013 ± 0.00019 mM; in assay [10], 0.00179 ± 0.00084 mM; in [11], 0.00884 ± 0.00109 mM; in assay [12], 0.00784 ± 0.00034 mM; in [13] it was 0.6 ± 0.24 µM. Besides, the “binding (in words)” value in assay [6] is given as “completely abolished”. Moreover, in assay [6] (MST, initial fluorescence), the “Dissociation Constant (KD) ± Standard Deviation” value is reported as “No Binding Observed”. Further, the “improvement of binding affinity versus WT USPSa” value in assay [7] is recorded as around 50 fold. In addition, the “binding affinity versus WT USPSa (in words)” value in assay [12] was “significant reduction”.

The record behind these values is PMC8214093, “Structural basis of KdpD histidine kinase binding to the second messenger c-di-AMP” (The Journal of Biological Chemistry, 2021).
